pIC50: −log10 of the molar value. Oligonucleotides are written 5' to 3', each unit as a sugar letter and its base; * is a phosphorothioate linkage, no mark a phosphodiester; rarer units and linkages stand in square brackets, end groups in braces. Plain capitals give the bases only. e = 2'-O-(2-methoxyethyl) (MOE); [5mC] = 5-methylcytosine; d = 2'-deoxy (DNA)
system: murine TTC39C mRNA; assay: Dose-dependent antisense inhibition of murine TTC39C in mouse primary hepatocytes; format: cell-based; conditions: 500.0 nM, electroporation, ~16 h
Description: Thirty antisense oligonucleotides were selected from the study described in Example 8 and further tested at various doses in mouse primary hepatocytes. Cells were plated at a density of 30,000 cells per well and transfected using electroporation with 500 nM, 1,000 nM, 2,000 nM, 4,000 nM, and 8,000 nM concentrations of antisense oligonucleotide, as specified in Table 30. After a treatment period of approximately 16 hours, RNA was isolated from the cells and TTC39C mRNA levels were measured by quantitative real-time PCR. Murine primer probe set RTS3266 was used to measure mRNA levels. TTC39C mRNA levels were adjusted according to total RNA content, as measured by RIBOGREEN®. Results are presented as percent inhibition of TTC39C, relative to untreated control cells.

Substance | percent inhibition of TTC39C mRNA [%]
ISIS 474654: 5-10-5 MOE gapmer antisense oligonucleotide targeting murine TTC39C (antisense eT*e[5mC]*eA*eG*e[5mC]*dT*dA*d[5mC]*dA*dG*dA*dA*d[5mC]*dG*d[5mC]*eA*eG*eG*eG*eT) | 11

same assay, conditions: 1000.0 nM, electroporation, ~16 h

Substance | percent inhibition of TTC39C mRNA [%]
ISIS 474654: 5-10-5 MOE gapmer antisense oligonucleotide targeting murine TTC39C (antisense eT*e[5mC]*eA*eG*e[5mC]*dT*dA*d[5mC]*dA*dG*dA*dA*d[5mC]*dG*d[5mC]*eA*eG*eG*eG*eT) | 14

same assay, conditions: 2000.0 nM, electroporation, ~16 h

Substance | percent inhibition of TTC39C mRNA [%]
ISIS 474654: 5-10-5 MOE gapmer antisense oligonucleotide targeting murine TTC39C (antisense eT*e[5mC]*eA*eG*e[5mC]*dT*dA*d[5mC]*dA*dG*dA*dA*d[5mC]*dG*d[5mC]*eA*eG*eG*eG*eT) | 38

same assay, conditions: 4000.0 nM, electroporation, ~16 h

Substance | percent inhibition of TTC39C mRNA [%]
ISIS 474654: 5-10-5 MOE gapmer antisense oligonucleotide targeting murine TTC39C (antisense eT*e[5mC]*eA*eG*e[5mC]*dT*dA*d[5mC]*dA*dG*dA*dA*d[5mC]*dG*d[5mC]*eA*eG*eG*eG*eT) | 60

same assay, conditions: 8000.0 nM, electroporation, ~16 h

Substance | percent inhibition of TTC39C mRNA [%]
ISIS 474654: 5-10-5 MOE gapmer antisense oligonucleotide targeting murine TTC39C (antisense eT*e[5mC]*eA*eG*e[5mC]*dT*dA*d[5mC]*dA*dG*dA*dA*d[5mC]*dG*d[5mC]*eA*eG*eG*eG*eT) | 74

same assay, conditions: mouse primary hepatocytes, electroporation, ~16 h

Substance | pIC50
ISIS 474654: 5-10-5 MOE gapmer antisense oligonucleotide targeting murine TTC39C (antisense eT*e[5mC]*eA*eG*e[5mC]*dT*dA*d[5mC]*dA*dG*dA*dA*d[5mC]*dG*d[5mC]*eA*eG*eG*eG*eT) | 5.51

system: murine TTC39B mRNA; assay: Antisense inhibition of murine TTC39B in mouse primary hepatocytes, single dose; format: cell-based; conditions: 100 nM, cytofectin, ~24 h, vs untreated control; gapmers targeted to SEQ ID NO: 6
Description: Antisense oligonucleotides targeted to a TTC39B nucleic acid were tested for their effects on TTC39B mRNA in vitro. Cultured mouse primary hepatocytes at a density of 10,000 cells per well were transfected using cytofectin reagent with 100 nM antisense oligonucleotide. After a treatment period of approximately 24 hours, RNA was isolated from the cells and TTC39B mRNA levels were measured by quantitative real-time PCR. TTC39B mRNA levels were adjusted according to total RNA content, as measured by RIBOGREEN®. Results are presented as percent inhibition of TTC39B, relative to untreated control cells.
The chimeric antisense oligonucleotides in Tables 1 and 2 were designed as 5-10-5 MOE gapmers. The gapmers are 20 nucleotides in length, wherein the central gap segment is comprised of 10 2′-deoxynucleotides and is flanked on both sides (in the 5′ and 3′ directions) by wings comprising 5 nucleotides each. Each nucleotide in the 5′ wing segment and each nucleotide in the 3′ wing segment has a 2′-MOE modification. The internucleoside linkages throughout each gapmer are phosphorothioate (P═S) linkages. All cytosine residues throughout each gapmer are 5-methylcytosines. “Target start site” indicates the 5′-most nucleotide to which the gapmer is targeted. “Target stop site” indicates the 3′-most nucleotide to which the gapmer is targeted. Each gapmer listed in Table 1 is targeted to SEQ ID NO: 6 (GENBANK Accession No. NM_027238.2) and each gapmer listed in Table 2 is targeted to SEQ ID NO: 10 (the complement of GENBANK Accession No. NT—039260.7 truncated at nucleotides 22491001 to 22601000), SEQ ID NO: 11 (GENBANK Accession No. BY244623.1), SEQ ID NO: 12 (GENBANK Accession No. BY260936), SEQ ID NO: 13 (GENBANK Accession No. BM935568.1) or SEQ ID NO: 14 (GENBANK Accession No. BY728780.1).

Substance | % inhibition of murine TTC39B mRNA [%]
AAAATATCTCTGAAGTTTAA (antisense eA*eA*eA*eA*eT*dA*dT*d[5mC]*dT*d[5mC]*dT*dG*dA*dA*dG*eT*eT*eT*eA*eA) [ISIS 447136] | 24
ACAAAGTGAAAGCCGCTGGT (antisense eA*e[5mC]*eA*eA*eA*dG*dT*dG*dA*dA*dA*dG*d[5mC]*d[5mC]*dG*e[5mC]*eT*eG*eG*eT) [ISIS 447103] | 64
ACAGTATCTTGAACATGACA (antisense eA*e[5mC]*eA*eG*eT*dA*dT*d[5mC]*dT*dT*dG*dA*dA*d[5mC]*dA*eT*eG*eA*e[5mC]*eA) [ISIS 447147] | 46
AGATACAAGTCCCTTCTGCC (antisense eA*eG*eA*eT*eA*d[5mC]*dA*dA*dG*dT*d[5mC]*d[5mC]*d[5mC]*dT*dT*e[5mC]*eT*eG*e[5mC]*e[5mC]) [ISIS 447137] | 50
AGCATCAAATTAAAGGCCCC (antisense eA*eG*e[5mC]*eA*eT*d[5mC]*dA*dA*dA*dT*dT*dA*dA*dA*dG*eG*e[5mC]*e[5mC]*e[5mC]*e[5mC]) [ISIS 447113] | 59
AGGACCTTGATGGCCTTGTC (antisense eA*eG*eG*eA*e[5mC]*d[5mC]*dT*dT*dG*dA*dT*dG*dG*d[5mC]*d[5mC]*eT*eT*eG*eT*e[5mC]) [ISIS 447130] | 44
AGTATGAGGGAGCCATTTGG (antisense eA*eG*eT*eA*eT*dG*dA*dG*dG*dG*dA*dG*d[5mC]*d[5mC]*dA*eT*eT*eT*eG*eG) [ISIS 447117] | 47
ATCCACATTAATTCCCAGTA (antisense eA*eT*e[5mC]*e[5mC]*eA*d[5mC]*dA*dT*dT*dA*dA*dT*dT*d[5mC]*d[5mC]*e[5mC]*eA*eG*eT*eA) [ISIS 447120] | 65
CAGTAAAGTCTTGATTCTGC (antisense e[5mC]*eA*eG*eT*eA*dA*dA*dG*dT*d[5mC]*dT*dT*dG*dA*dT*eT*e[5mC]*eT*eG*e[5mC]) [ISIS 447126] | 58
CATCATTTCCAGGGCTGGCA (antisense e[5mC]*eA*eT*e[5mC]*eA*dT*dT*dT*d[5mC]*d[5mC]*dA*dG*dG*dG*d[5mC]*eT*eG*eG*e[5mC]*eA) [ISIS 447125] | 54
CCAGACAGACACTCAGACCA (antisense e[5mC]*e[5mC]*eA*eG*eA*d[5mC]*dA*dG*dA*d[5mC]*dA*d[5mC]*dT*d[5mC]*dA*eG*eA*e[5mC]*e[5mC]*eA) [ISIS 447149] | 48
CCCCGTTCCAAGCTTGACTC (antisense e[5mC]*e[5mC]*e[5mC]*e[5mC]*eG*dT*dT*d[5mC]*d[5mC]*dA*dA*dG*d[5mC]*dT*dT*eG*eA*e[5mC]*eT*e[5mC]) [ISIS 447112] | 62
CCGCACACCCACAGGGAACT (antisense e[5mC]*e[5mC]*eG*e[5mC]*eA*d[5mC]*dA*d[5mC]*d[5mC]*d[5mC]*dA*d[5mC]*dA*dG*dG*eG*eA*eA*e[5mC]*eT) [ISIS 447099] | 56
CCTGATAAATCACAAATGCT (antisense e[5mC]*e[5mC]*eT*eG*eA*dT*dA*dA*dA*dT*d[5mC]*dA*d[5mC]*dA*dA*eA*eT*eG*e[5mC]*eT) [ISIS 447150] | 46
CGTGTCATTTATTAAATAAC (antisense e[5mC]*eG*eT*eG*eT*d[5mC]*dA*dT*dT*dT*dA*dT*dT*dA*dA*eA*eT*eA*eA*e[5mC]) [ISIS 447154] | 22
CTTTATTGTACCTGCCAGTC (antisense e[5mC]*eT*eT*eT*eA*dT*dT*dG*dT*dA*d[5mC]*d[5mC]*dT*dG*d[5mC]*e[5mC]*eA*eG*eT*e[5mC]) [ISIS 447134] | 53
GACAGCCTGCAACACCACAA (antisense eG*eA*e[5mC]*eA*eG*d[5mC]*d[5mC]*dT*dG*d[5mC]*dA*dA*d[5mC]*dA*d[5mC]*e[5mC]*eA*e[5mC]*eA*eA) [ISIS 447105] | 52
GACTTTGAGATGGCACACAA (antisense eG*eA*e[5mC]*eT*eT*dT*dG*dA*dG*dA*dT*dG*dG*d[5mC]*dA*e[5mC]*eA*e[5mC]*eA*eA) [ISIS 447152] | 60
GACTTTTAATTCAAAGTCCT (antisense eG*eA*e[5mC]*eT*eT*dT*dT*dA*dA*dT*dT*d[5mC]*dA*dA*dA*eG*eT*e[5mC]*e[5mC]*eT) [ISIS 447153] | 58
GAGTACATTCAAATACAGGA (antisense eG*eA*eG*eT*eA*d[5mC]*dA*dT*dT*d[5mC]*dA*dA*dA*dT*dA*e[5mC]*eA*eG*eG*eA) [ISIS 447139] | 58
GCAGCCATGGCCCTGGGTCA (antisense eG*e[5mC]*eA*eG*e[5mC]*d[5mC]*dA*dT*dG*dG*d[5mC]*d[5mC]*d[5mC]*dT*dG*eG*eG*eT*e[5mC]*eA) [ISIS 447141] | 40
GCAGCTTTCAAGAACACATA (antisense eG*e[5mC]*eA*eG*e[5mC]*dT*dT*dT*d[5mC]*dA*dA*dG*dA*dA*d[5mC]*eA*e[5mC]*eA*eT*eA) [ISIS 447123] | 47

same assay, conditions: 100 nM, cytofectin, ~24 h, vs untreated control; gapmers targeted to SEQ ID NO: 10-14

Substance | % inhibition of murine TTC39B mRNA [%]
AAAGAGGAGTCCTTCCTTAA (antisense eA*eA*eA*eG*eA*dG*dG*dA*dG*dT*d[5mC]*d[5mC]*dT*dT*d[5mC]*e[5mC]*eT*eT*eA*eA) [ISIS 447160] | 63
ACTCAGTCATACTTTTGGCA (antisense eA*e[5mC]*eT*e[5mC]*eA*dG*dT*d[5mC]*dA*dT*dA*d[5mC]*dT*dT*dT*eT*eG*eG*e[5mC]*eA) [ISIS 447168] | 35
AGCCTTGTTCACTGGGAAGA (antisense eA*eG*e[5mC]*e[5mC]*eT*dT*dG*dT*dT*d[5mC]*dA*d[5mC]*dT*dG*dG*eG*eA*eA*eG*eA) [ISIS 447162] | 59
ATCATATTTTCATCCTGAAA (antisense eA*eT*e[5mC]*eA*eT*dA*dT*dT*dT*dT*d[5mC]*dA*dT*d[5mC]*d[5mC]*eT*eG*eA*eA*eA) [ISIS 447170] | 35
CCTTACCAAATTAAAGGCCC (antisense e[5mC]*e[5mC]*eT*eT*eA*d[5mC]*d[5mC]*dA*dA*dA*dT*dT*dA*dA*dA*eG*eG*e[5mC]*e[5mC]*e[5mC]) [ISIS 447171] | 23
CGGAGATCAGTTTCTTCACT (antisense e[5mC]*eG*eG*eA*eG*dA*dT*d[5mC]*dA*dG*dT*dT*dT*d[5mC]*dT*eT*e[5mC]*eA*e[5mC]*eT) [ISIS 447165] | 50
CTGATGAACTTGATTTAGCC (antisense e[5mC]*eT*eG*eA*eT*dG*dA*dA*d[5mC]*dT*dT*dG*dA*dT*dT*eT*eA*eG*e[5mC]*e[5mC]) [ISIS 447166] | 0
GAATTATTTATTCTCACACC (antisense eG*eA*eA*eT*eT*dA*dT*dT*dT*dA*dT*dT*d[5mC]*dT*d[5mC]*eA*e[5mC]*eA*e[5mC]*e[5mC]) [ISIS 447167] | 56
